Measured values reported in ChEMBL document CHEMBL1909046, “DrugMatrix in vitro pharmacology data”.

What was measured:
[1] = molecular target: Protein kinase C alpha type (Homo sapiens, UniProt P17252); assay type: cell-based; settings: sf9;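 note: inhibition of PKCalpha kinase activity measured in an enzyme assay with histone as the phosphorylation substrate; in other assays of this panel Not Active means under 50% inhibition at 10 µM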
[2] = DRUGMATRIX: Tumor Necrosis Factor (TNF), Non-Selective radioligand binding (ligand: [125I] TNF-alpha); assay type: cell membranes, Membrane; settings: u-937; Not Active = under 50% inhibition at 10 µM
[3] = molecular target: T1, 5-hydroxytryptamine receptor 2C (Homo sapiens, UniProt P28335); test: DRUGMATRIX: Serotonin (5-Hydroxytryptamine) 5-HT2C radioligand binding (ligand: [3H] Mesulergine); assay type: cell membranes, CHO-K1, Membrane; settings: Not Active = under 50% inhibition at 10 µM
T1 sequence (P28335 whole entry): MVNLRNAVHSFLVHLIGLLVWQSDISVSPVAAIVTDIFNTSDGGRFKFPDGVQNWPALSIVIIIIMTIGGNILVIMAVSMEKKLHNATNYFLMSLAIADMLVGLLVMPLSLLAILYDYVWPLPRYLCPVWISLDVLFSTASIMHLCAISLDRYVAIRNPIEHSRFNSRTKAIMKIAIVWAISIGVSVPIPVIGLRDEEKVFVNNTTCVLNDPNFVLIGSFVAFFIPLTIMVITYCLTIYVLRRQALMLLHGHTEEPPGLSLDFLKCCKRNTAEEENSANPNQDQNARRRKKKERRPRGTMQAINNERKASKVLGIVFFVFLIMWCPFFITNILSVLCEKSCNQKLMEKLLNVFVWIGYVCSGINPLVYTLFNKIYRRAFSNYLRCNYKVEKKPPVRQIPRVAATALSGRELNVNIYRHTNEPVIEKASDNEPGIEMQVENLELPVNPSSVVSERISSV

[4] = molecular target: T2, 5-hydroxytryptamine receptor 1A (Rattus norvegicus, UniProt P19327); assay type: cell membranes, CHO-K1, Membrane; note: in other assays of this panel Not Active means under 50% inhibition at 10 µM
T2 sequence (P19327 whole entry): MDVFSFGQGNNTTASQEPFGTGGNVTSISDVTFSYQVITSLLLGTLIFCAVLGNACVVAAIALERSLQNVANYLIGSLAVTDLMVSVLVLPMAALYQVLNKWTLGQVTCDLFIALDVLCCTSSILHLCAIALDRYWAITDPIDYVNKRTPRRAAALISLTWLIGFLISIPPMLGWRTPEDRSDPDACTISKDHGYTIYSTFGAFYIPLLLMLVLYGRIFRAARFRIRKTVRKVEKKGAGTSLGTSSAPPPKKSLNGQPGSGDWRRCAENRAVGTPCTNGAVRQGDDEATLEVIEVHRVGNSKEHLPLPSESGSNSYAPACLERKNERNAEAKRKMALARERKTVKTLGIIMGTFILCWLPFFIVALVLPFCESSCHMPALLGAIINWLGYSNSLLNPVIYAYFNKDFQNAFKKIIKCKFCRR

[5] = molecular target: T3, Angiotensin-converting enzyme (Oryctolagus cuniculus, UniProt P12822); assay type: tissue-based, Lung;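 note: enzymatic inhibition of angiotensin-converting enzyme measured with FAPGG as the substrate; in other assays of this panel Not Active means under 50% inhibition at 10 µM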
T3 sequence (P12822 whole entry): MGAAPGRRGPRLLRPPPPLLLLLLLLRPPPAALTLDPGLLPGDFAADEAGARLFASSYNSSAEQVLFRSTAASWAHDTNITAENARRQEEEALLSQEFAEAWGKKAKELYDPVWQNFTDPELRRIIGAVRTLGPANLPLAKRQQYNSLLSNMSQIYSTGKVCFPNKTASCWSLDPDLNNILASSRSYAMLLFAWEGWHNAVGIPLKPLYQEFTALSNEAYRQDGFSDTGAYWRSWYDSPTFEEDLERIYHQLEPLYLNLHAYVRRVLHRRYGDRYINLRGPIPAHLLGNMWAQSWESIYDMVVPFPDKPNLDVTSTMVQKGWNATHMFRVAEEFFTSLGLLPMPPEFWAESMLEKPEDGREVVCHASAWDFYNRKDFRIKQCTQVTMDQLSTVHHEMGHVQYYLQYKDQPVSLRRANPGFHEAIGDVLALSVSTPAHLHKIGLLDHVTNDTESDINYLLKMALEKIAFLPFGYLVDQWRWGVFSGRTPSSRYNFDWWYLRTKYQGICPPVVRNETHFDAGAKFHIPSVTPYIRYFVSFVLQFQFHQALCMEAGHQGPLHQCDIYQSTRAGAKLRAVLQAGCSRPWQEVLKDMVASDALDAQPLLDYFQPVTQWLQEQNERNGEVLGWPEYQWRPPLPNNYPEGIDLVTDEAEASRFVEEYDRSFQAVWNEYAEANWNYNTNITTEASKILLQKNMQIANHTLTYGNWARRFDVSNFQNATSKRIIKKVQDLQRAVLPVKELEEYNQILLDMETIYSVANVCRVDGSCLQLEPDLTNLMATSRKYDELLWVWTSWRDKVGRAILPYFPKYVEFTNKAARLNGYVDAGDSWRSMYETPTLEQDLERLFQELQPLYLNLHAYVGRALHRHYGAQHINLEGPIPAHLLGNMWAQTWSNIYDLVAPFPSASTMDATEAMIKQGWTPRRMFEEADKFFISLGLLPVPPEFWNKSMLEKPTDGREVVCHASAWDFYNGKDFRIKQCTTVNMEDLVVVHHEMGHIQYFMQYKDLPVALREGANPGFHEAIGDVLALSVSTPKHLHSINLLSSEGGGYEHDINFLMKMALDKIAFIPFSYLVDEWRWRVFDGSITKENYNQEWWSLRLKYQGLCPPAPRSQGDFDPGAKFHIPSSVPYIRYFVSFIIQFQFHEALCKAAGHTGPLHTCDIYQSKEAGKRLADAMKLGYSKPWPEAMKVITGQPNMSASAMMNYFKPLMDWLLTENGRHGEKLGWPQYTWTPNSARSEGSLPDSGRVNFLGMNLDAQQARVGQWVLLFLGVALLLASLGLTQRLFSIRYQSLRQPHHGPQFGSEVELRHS

[6] = molecular target: Platelet-activating factor receptor (Homo sapiens, UniProt P25105); test: biochemical; assay type: tissue-based; settings: platelet; note: in other assays of this panel Not Active means under 50% inhibition at 10 µM
Platelet-activating factor receptor, sequence (P25105 whole entry): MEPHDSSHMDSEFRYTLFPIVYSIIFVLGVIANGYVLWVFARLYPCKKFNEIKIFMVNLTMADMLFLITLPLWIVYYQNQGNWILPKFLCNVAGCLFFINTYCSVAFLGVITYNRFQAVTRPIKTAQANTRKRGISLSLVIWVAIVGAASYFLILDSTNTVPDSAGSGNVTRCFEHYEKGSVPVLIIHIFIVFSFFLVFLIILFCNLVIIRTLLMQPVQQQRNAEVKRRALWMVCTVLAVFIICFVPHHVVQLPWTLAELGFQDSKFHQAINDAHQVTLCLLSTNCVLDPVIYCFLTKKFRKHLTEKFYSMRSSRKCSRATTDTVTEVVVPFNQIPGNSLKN

SMILES	IC50 [1]	IC50 [2]	Ki [2]	IC50 ([3]; cho-k1)	IC50 ([4]; cho-k1)	IC50 [5]	IC50 [6]	IC50 ([3]; read-out: IC50) [nM]	Ki ([3]; read-out: Ki) [nM]	IC50 ([4]; read-out: IC50) [nM]	Ki ([4]; read-out: Ki) [nM]
Cc1cccc(Nc2ccccc2C(=O)O)c1C [MEFENAMIC ACID]	Not Active	Not Active	Not Active	Not Active	Not Active	Not Active	Not Active	–	–	–	–
COC(=O)c1ccccc1O [METHYL SALICYLATE]	Not Active	Not Active	Not Active	Not Active	Not Active	Not Active	Not Active	–	–	–	–
CC[C@H](C)C(=O)O[C@H]1C[C@H](O)C=C2C=C[C@H](C)[C@H](CC[C@@H](O)C[C@@H](O)CC(=O)O)[C@H]21 [PRAVASTATIN]	Not Active	Not Active	Not Active	Not Active	Not Active	Not Active	Not Active	–	–	–	–
N[C@@H](Cc1ccc(F)cc1)C(=O)O	Not Active	Not Active	Not Active	Not Active	Not Active	Not Active	Not Active	–	–	–	–
C[C@]12C/C(=C/O)C(=O)C[C@@H]1CC[C@@H]1[C@@H]2CC[C@@]2(C)[C@H]1CC[C@]2(C)O [OXYMETHOLONE]	Not Active	Not Active	Not Active	Not Active	Not Active	Not Active	Not Active	–	–	–	–
Clc1cc2c(cc1Cl)Oc1cc(Cl)c(Cl)cc1O2 [2,3,7,8-TETRACHLORODIBENZO-P-DIOXIN]	Not Active	Not Active	Not Active	Not Active	Not Active	Not Active	Not Active	–	–	–	–
OCCO [ETHYLENE GLYCOL]	Not Active	Not Active	Not Active	Not Active	Not Active	Not Active	Not Active	–	–	–	–
NC[C@H]1O[C@H](O[C@H]2[C@H](O)[C@@H](O[C@H]3O[C@H](CO)[C@@H](O)[C@H](N)[C@H]3O)[C@H](N)C[C@@H]2N)[C@H](O)[C@@H](O)[C@@H]1O [KANAMYCIN]	Not Active	Not Active	Not Active	Not Active	Not Active	Not Active	Not Active	–	–	–	–
O=C(/C=C/c1ccc(O)c(O)c1)OCCc1ccccc1 [CAFFEIC ACID PHENETHYL ESTER]	Not Active	Not Active	Not Active	Not Active	Not Active	Not Active	Not Active	–	–	–	–
NC[C@@H]1O[C@H](O[C@H]2[C@@H](O)[C@H](O[C@@H]3[C@@H](O)[C@H](N)C[C@H](N)[C@H]3O[C@H]3O[C@H](CN)[C@@H](O)[C@H](O)[C@H]3N)O[C@@H]2CO)[C@H](N)[C@@H](O)[C@@H]1O [FRAMYCETIN]	Not Active	Not Active	Not Active	Not Active	Not Active	Not Active	Not Active	–	–	–	–
CCCCCC[C@H]1C(=O)O[C@H](C)[C@H](NC(=O)c2cccc(NC=O)c2O)C(=O)O[C@@H](C)[C@@H]1OC(=O)CC(C)C [ANTIMYCIN A]	Not Active	Not Active	Not Active	Not Active	Not Active	Not Active	Not Active	–	–	–	–
Oc1ccccc1O [CATECHOL]	Not Active	Not Active	Not Active	Not Active	Not Active	Not Active	Not Active	–	–	–	–
Cc1c(F)c(N2CCNC(C)C2)cc2c1c(=O)c(C(=O)O)cn2C1CC1 (stereo unspecified) [GREPAFLOXACIN]	Not Active	Not Active	Not Active	Not Active	Not Active	Not Active	Not Active	–	–	–	–
[N-]=[N+]=CC(=O)OC[C@H](N)C(=O)O [AZASERINE]	Not Active	Not Active	Not Active	Not Active	Not Active	Not Active	Not Active	–	–	–	–
C#C[C@]1(O)CC[C@H]2[C@@H]3CCC4=Cc5oncc5C[C@]4(C)[C@H]3CC[C@@]21C [DANAZOL]	Not Active	Not Active	Not Active	Not Active	Not Active	Not Active	Not Active	–	–	–	–
CO[C@H]1[C@@H](O)[C@H](N)[C@@H](O[C@H]2O[C@H]([C@H](C)N)CC[C@H]2N)[C@H](O)[C@@H]1N(C)C(=O)CN [ASTROMICIN]	Not Active	Not Active	Not Active	Not Active	Not Active	Not Active	Not Active	–	–	–	–
COc1ccc2cc(CCC(C)=O)ccc2c1 [NABUMETONE]	Not Active	Not Active	Not Active	Not Active	Not Active	Not Active	Not Active	–	–	–	–
N=C(N)N/N=C/c1c(Cl)cccc1Cl [GUANABENZ]	Not Active	Not Active	Not Active	–	–	Not Active	Not Active	204	107	2070	1180
NC(=O)N1c2ccccc2C=Cc2ccccc21 [CARBAMAZEPINE]	Not Active	Not Active	Not Active	Not Active	Not Active	Not Active	Not Active	–	–	–	–
Cc1c(N(C)CS(=O)(=O)[O-])c(=O)n(-c2ccccc2)n1C.[Na+] [DIPYRONE SODIUM]	Not Active	Not Active	Not Active	Not Active	Not Active	Not Active	Not Active	–	–	–	–
OCCN1CCN(CCCN2c3ccccc3Sc3ccc(Cl)cc32)CC1 [PERPHENAZINE]	Not Active	Not Active	Not Active	Not Active	Not Active	Not Active	Not Active	–	–	–	–
CC[C@]1(O)CC[C@H]2[C@@H]3CCC4=CCCC[C@@H]4[C@H]3CC[C@@]21C	Not Active	Not Active	Not Active	Not Active	Not Active	Not Active	Not Active	–	–	–	–
